2 molecules from ChEMBL document CHEMBL2413038, “Synthesis and bioevaluation of novel 4-aminoquinoline-tetrazole derivatives as potent antimalarial agents” (Eur J Med Chem, 2013) can be followed below.

A word on the IC50: it is the concentration at which inhibition is half-maximal. The Tmax is the time from dosing to the highest level. For orientation: CL/F means the apparent clearance, not corrected for the fraction that reaches the circulation. In general, Cmax refers to the peak of the concentration-time curve. As a reminder, the AUC(0-t) is the area under the concentration-time curve up to a stated or last time point.

Each structure is given as a SMILES string. ≈ marks a conversion by molar mass, not a printed value. Calls of active or inactive are those of the source. The calls are words filed in the database; no cut-off is given here.

One data set relates to Plasma. In words: Inhibition of beta-hematin formation in Plasmodium yoelii-infected Swiss albino mouse plasma using hemin as substrate after 16 hrs. Type of data set: functional, cell-free.
Data set [1] concerns Plasmodium yoelii. As to the kind of experiment: Antimalarial activity against chloroquine-resistant Plasmodium yoelii N-67 infected in Swiss mouse assessed as mouse survival at 10 mg/kg, ip qd for 4 days measured on day 28 post infection. Further details: dose 10 mg/kg. It is filed as functional, organism-based.
For data set [2], the system named is Plasmodium yoelii. In words: Antimalarial activity against chloroquine-resistant Plasmodium yoelii N-67 infected in Swiss mouse assessed as mean survival time at 10 mg/kg, po for 4 days. It is filed as functional.
Data set [3] relates to Plasmodium yoelii. As to the kind of experiment: Antimalarial activity against chloroquine-resistant Plasmodium yoelii N-67 infected in Swiss mouse assessed as cured animal at 10 mg/kg, po for 4 days measured on day 28 post infection. It is filed as functional, organism-based. Further details: dose 10 mg/kg.
Data set [4] deals with Rattus norvegicus. In words: Volume of distribution in Sprague-Dawley rat at 5 mg/kg, po. Conditions: in vivo. Also on record: dose 5 mg/kg, route oral. Type of data set: ADME, organism-based.
In data set [5] the test system is Rattus norvegicus. In words: Tmax in Sprague-Dawley rat at 5 mg/kg, po. It is filed as ADME, organism-based. Also on record: dose 5 mg/kg, route oral. Conditions: in vivo.
Data set [6] is described as follows: Clearance in Sprague-Dawley rat at 5 mg/kg, po. It is filed as ADME, organism-based. Also on record: dose 5 mg/kg, route oral. Conditions: in vivo.
For data set [7], the system named is Rattus norvegicus. In words: Elimination half life in Sprague-Dawley rat at 5 mg/kg, po. Type of data set: ADME, organism-based. Further details: dose 5 mg/kg, route oral. The conditions noted are these: in vivo.
Data set [8] concerns Rattus norvegicus. In words: AUC (0 to t) in Sprague-Dawley rat at 5 mg/kg, po. Type of data set: ADME, organism-based, Plasma. Also on record: dose 5 mg/kg, route oral. Conditions: in vivo.
For data set [9], the system named is Plasmodium yoelii. As to the kind of experiment: Antimalarial activity against chloroquine-resistant Plasmodium yoelii N-67 infected in Swiss mouse assessed as mean survival time at 100 mg/kg, po qd for 4 days. Type of data set: functional.
The subject of data set [10] is Plasmodium yoelii. In words: Antimalarial activity against chloroquine-resistant Plasmodium yoelii N-67 infected in Swiss mouse assessed as cured animal at 50 mg/kg, ip qd for 4 days measured on day 28 post infection relative to control. It is filed as functional. The conditions noted are these: route intraperitoneal.
Data set [11] in a line: Cmax in Sprague-Dawley rat at 10 mg/kg, po. It is filed as ADME, organism-based. Further details: dose 10 mg/kg, route oral. Conditions: in vivo.
For data set [12], the system named is Plasmodium falciparum. As to the kind of experiment: Antimalarial activity against chloroquine-resistant Plasmodium falciparum K1 after 72 hrs by MSF assay. Type of data set: functional, organism-based. Conditions: K1, 72 h.
Data set [13] has as its system Plasmodium yoelii. As to the kind of experiment: Antimalarial activity against chloroquine-resistant Plasmodium yoelii N-67 infected in Swiss mouse assessed as cured animal at 100 mg/kg, po for 4 days measured on day 28 post infection relative to control. Type of data set: functional.
Data set [14] can be described thus: Clearance in Sprague-Dawley rat at 10 mg/kg, po. Also on record: dose 10 mg/kg, route oral. It is filed as ADME, organism-based. Conditions: in vivo.
For data set [15], the system named is Plasmodium yoelii. As to the kind of experiment: Antimalarial activity against chloroquine-resistant Plasmodium yoelii N-67 infected in Swiss mouse assessed as suppression of parasitaemia level at 50 mg/kg, ip qd for 4 days relative to control. It is filed as functional. The conditions noted are these: route intraperitoneal.
Data set [16] deals with Rattus norvegicus. In words: Volume of distribution in Sprague-Dawley rat at 10 mg/kg, po. It is filed as ADME, organism-based. Also on record: dose 10 mg/kg, route oral. Conditions: in vivo.
For data set [17], the system named is Plasmodium yoelii. In words: Antimalarial activity against chloroquine-resistant Plasmodium yoelii N-67 infected in Swiss mouse assessed as suppression of parasitaemia level at 100 mg/kg, po qd for 4 days relative to control. It is filed as functional.
Data set [18] is described as follows: Selectivity index, ratio of CC50 for African green monkey Vero cells to IC50 for Plasmodium falciparum. Type of data set: functional.
For data set [19], the system named is Plasmodium yoelii. As to the kind of experiment: Antimalarial activity against chloroquine-resistant Plasmodium yoelii N-67 infected in Swiss mouse assessed as mean survival time at 50 mg/kg, ip qd for 4 days. Type of data set: functional. The conditions noted are these: route intraperitoneal.
The test system of data set [20] is Plasmodium yoelii. In words: Antimalarial activity against chloroquine-resistant Plasmodium yoelii N-67 infected in Swiss mouse assessed as mouse survival at 50 mg/kg, ip qd for 4 days measured on day 28 post infection relative to control. It is filed as functional. Conditions: route intraperitoneal.
Data set [21] in a line: Elimination half life in Sprague-Dawley rat at 10 mg/kg, po. Type of data set: ADME, organism-based. The conditions noted are these: in vivo, read-out: beta t1/2 (converted). Further details: dose 10 mg/kg, route oral.
Data set [22] in a line: Tmax in Sprague-Dawley rat at 10 mg/kg, po. Type of data set: ADME, organism-based. Also on record: dose 10 mg/kg, route oral. Conditions: in vivo.
A short description of data set [23]: AUC (0 to t) in Sprague-Dawley rat at 10 mg/kg, po. It is filed as ADME, organism-based. Further details: dose 10 mg/kg, route oral. The conditions noted are these: plasma.
Data set [24] concerns Plasmodium yoelii. As to the kind of experiment: Antimalarial activity against chloroquine-resistant Plasmodium yoelii N-67 infected in Swiss mouse assessed as mouse survival at 100 mg/kg, po qd for 4 days measured on day 28 post infection relative to control. Type of data set: functional.
For data set [25], the system named is Plasmodium falciparum. In words: Antimalarial activity against chloroquine-sensitive Plasmodium falciparum 3D7 after 72 hrs by MSF assay. Type of data set: functional, organism-based. The conditions noted are these: 3D7, 72 h.
The subject of data set [26] is Plasmodium falciparum. In words: Resistance index, ratio of IC50 for chloroquine-resistant Plasmodium falciparum K1 to IC50 for chloroquine-sensitive Plasmodium falciparum 3D7. Type of data set: functional.

As to `CCN(CC)CCCC(C)Nc1ccnc2cc(Cl)ccc12` (stereo not given) [CHLOROQUINE], in the data set on Plasma, the midpoint of inhibition, the IC50, lay at 3.95 µg/mL (≈ 12.3 µM) and the inhibition entry was “Dose-dependent effect”. Also, the outcome in the data set with Plasmodium yoelii [1] was inactive. Further, in the data set with Plasmodium yoelii [2], the MST amounted to 16.5 days. Also, the result with Plasmodium yoelii [3] was inactive. Besides, the Vd in the data set on Rattus norvegicus [4] turned out to be 1.49 L. In addition, the time of peak concentration (Tmax) in the data set with Rattus norvegicus [5] amounted to 0.91 h. The molecule further had a CL/F in data set [6] of 2.5 mL/min. The “beta t1/2” value with Rattus norvegicus [7] was found to be 9.5 h. The molecule further came in with an AUCt with Rattus norvegicus [8] of 30.147 ng·h/mL.

`CC(C)(C)n1nnnc1C(Nc1ccc(Nc2ccnc3cc(Cl)ccc23)cc1)c1ccc(Br)cc1` (stereo not given): the IC50 was determined as 5.65 µg/mL (≈ 10 µM) in the data set with Plasma, 234 nM in the data set on Plasmodium falciparum [12] and 11.8 nM in the data set with Plasmodium falciparum [25]. In addition, in the data set on Plasma, the inhibition entry was “Dose-dependent effect”. Moreover, the MST in the data set on Plasmodium yoelii [9] came to 25.6 days; with Plasmodium yoelii [19] it was 26 days. For the same molecule, the Activity with Plasmodium yoelii [10] is on record as 60%; in the data set with Plasmodium yoelii [13], 40%; in the data set with Plasmodium yoelii [15] it was 99.99%; in the data set on Plasmodium yoelii [17] it was 99.99%; with Plasmodium yoelii [20], 80%; in the data set with Plasmodium yoelii [24], 60%. This molecule also yielded a Cmax in data set [11] of 44.4 ng/mL. In data set [14], this molecule showed a CL/F of 32.3 mL/min. This molecule gave a Vd with Rattus norvegicus [16] of 63.38 L. The “Ratio CC50/IC50” value in data set [18] is on record as 2332.43. The half-life in [21] was 22.6 h. In addition, the time of peak concentration (Tmax) in data set [22] was 1.5 h. In data set [23], this molecule showed an AUC(0-t) of 704 ng·h/mL. In addition, the “Ratio IC50” value in the data set with Plasmodium falciparum [26] is recorded as 19.8.
